Source: patent US11912701B2, “Protein kinase inhibitors for promoting liver regeneration or reducing or preventing hepatocyte death” (HEPAREGENIX GMBH, priority 2018, dated 2024)

Tests used:
[1] = target: T1, MKK7 (Homo sapiens, UniProt O14733); experiment: KINOMEscan competition binding assay, MKK7; set-up: M1/R419; host or cells: HEK-293; conditions: ratio PoC (off-target)/PoC (MKK4)
T1 sequence (O14733 1-419): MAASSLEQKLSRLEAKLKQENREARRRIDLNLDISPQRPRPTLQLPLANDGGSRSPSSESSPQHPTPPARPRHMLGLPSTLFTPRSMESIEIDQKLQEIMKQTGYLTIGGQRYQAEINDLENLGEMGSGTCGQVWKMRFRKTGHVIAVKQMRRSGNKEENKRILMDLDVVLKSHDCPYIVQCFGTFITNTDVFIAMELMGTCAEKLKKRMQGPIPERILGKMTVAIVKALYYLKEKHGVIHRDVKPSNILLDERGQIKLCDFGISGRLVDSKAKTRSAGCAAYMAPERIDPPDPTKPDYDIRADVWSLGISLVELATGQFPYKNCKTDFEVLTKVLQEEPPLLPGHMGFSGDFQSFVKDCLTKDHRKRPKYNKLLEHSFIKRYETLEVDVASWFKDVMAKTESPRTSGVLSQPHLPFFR
In short: (§1)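 DNA-tagged kinases expressed in HEK-293 cells compete between immobilized ligand on blocked beads and test compound at 100 nM; kinase retained on beads quantified by qPCR of the tag.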

[2] = target: T1, MKK7; experiment: 33PanQinase enzyme assay, MKK7; type: biochemical; set-up: purchased ProQinase GmbH, Freiburg, Germany (33PanQinase Assay Service); conditions: ratio IC50(MKK7)/IC50(MKK4)
In short: (§2)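 Radiometric 33PanQinase format: kinase with substrate, ATP and compound (added in 10% DMSO stock) incubated 60 min at 30° C, stopped with 2% H3PO4, ^33Pi incorporation counted by scintillation. Single-concentration data given as % residual activity; IC50 by least-squares fit, with selectivity as IC50(off-target)/IC50(MKK4).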

[3] = target: T2, BRaf (Homo sapiens, UniProt P15056); experiment: KINOMEscan competition binding assay, BRaf; conditions: ratio PoC (off-target)/PoC (MKK4)
T2 construct: purchased ProQinase GmbH, Freiburg, Germany (33PanQinase Assay Service)
T2 sequence (P15056 whole entry, species assumed): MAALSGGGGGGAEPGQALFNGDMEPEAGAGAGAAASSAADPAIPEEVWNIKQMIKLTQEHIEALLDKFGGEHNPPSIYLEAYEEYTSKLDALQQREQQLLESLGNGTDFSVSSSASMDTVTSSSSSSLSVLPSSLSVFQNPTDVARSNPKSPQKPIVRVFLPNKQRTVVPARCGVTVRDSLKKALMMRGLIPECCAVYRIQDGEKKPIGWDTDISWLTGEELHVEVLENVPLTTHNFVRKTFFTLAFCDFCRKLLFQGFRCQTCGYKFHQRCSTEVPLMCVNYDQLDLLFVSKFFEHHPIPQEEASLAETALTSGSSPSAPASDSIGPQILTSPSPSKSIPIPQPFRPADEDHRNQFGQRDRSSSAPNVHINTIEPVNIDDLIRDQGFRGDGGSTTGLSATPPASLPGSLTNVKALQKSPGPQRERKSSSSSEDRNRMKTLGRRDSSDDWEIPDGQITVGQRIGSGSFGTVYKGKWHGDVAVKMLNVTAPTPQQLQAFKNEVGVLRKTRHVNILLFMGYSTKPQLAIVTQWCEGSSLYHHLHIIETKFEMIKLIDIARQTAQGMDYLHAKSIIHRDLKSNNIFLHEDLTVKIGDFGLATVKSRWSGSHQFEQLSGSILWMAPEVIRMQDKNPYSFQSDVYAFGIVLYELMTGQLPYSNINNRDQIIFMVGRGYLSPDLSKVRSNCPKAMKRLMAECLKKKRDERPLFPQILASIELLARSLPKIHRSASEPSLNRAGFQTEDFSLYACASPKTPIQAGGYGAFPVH
In short: as §1

[4] = target: T2, BRaf; experiment: 33PanQinase enzyme assay, BRaf; type: biochemical; conditions: ratio IC50(BRaf)/IC50(MKK4)
In short: as §2

[5] = target: T3, JNK1 (Homo sapiens, UniProt P45983); experiment: KINOMEscan competition binding assay, JNK1; set-up: M1/Q384; host or cells: HEK-293; conditions: ratio PoC (off-target)/PoC (MKK4)
In short: as §1
Target sequence in this assay (P45983 1-384 isoform P45983-2): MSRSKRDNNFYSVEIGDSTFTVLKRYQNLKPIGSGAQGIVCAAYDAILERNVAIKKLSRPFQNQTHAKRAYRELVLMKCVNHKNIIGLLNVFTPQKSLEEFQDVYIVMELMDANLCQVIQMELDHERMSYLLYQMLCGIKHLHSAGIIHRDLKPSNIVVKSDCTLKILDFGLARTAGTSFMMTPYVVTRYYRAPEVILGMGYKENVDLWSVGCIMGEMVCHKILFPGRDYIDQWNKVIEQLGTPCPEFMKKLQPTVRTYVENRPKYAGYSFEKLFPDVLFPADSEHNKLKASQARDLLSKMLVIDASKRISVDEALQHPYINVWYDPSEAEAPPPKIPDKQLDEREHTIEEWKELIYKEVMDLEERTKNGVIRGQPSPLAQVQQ

[6] = target: T4, MKK4 (Homo sapiens, UniProt P45985); experiment: KINOMEscan competition binding assay, MKK4; conditions: residual percent of control binding (PoC) at 100 nM
T4 construct: S84/D399; host or cells: HEK-293
T4 sequence (P45985 84-399): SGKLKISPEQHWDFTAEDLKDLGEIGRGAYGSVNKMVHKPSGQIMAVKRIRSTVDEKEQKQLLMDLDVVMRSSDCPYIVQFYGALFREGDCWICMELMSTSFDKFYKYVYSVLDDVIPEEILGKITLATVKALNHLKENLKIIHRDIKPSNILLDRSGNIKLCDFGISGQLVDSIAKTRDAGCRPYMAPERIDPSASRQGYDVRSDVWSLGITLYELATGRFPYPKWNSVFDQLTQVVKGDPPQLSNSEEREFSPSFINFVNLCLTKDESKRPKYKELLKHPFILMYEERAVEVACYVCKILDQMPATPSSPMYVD
In short: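 KINOMEscan competition of compound versus immobilized ligand for DNA-tagged MKK4 expressed in HEK-293 cells. Bound kinase was quantified by qPCR after elution.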

[7] = target: T5, MKK4 (Homo sapiens, UniProt P45985); experiment: 33PanQinase enzyme assay, MKK4; type: biochemical; conditions: assay 'IC50'; read-out: Potency MKK4 (IC50)
T5 construct: purchased ProQinase GmbH, Freiburg, Germany (33PanQinase Assay Service)
T5 sequence (P45985 1-399): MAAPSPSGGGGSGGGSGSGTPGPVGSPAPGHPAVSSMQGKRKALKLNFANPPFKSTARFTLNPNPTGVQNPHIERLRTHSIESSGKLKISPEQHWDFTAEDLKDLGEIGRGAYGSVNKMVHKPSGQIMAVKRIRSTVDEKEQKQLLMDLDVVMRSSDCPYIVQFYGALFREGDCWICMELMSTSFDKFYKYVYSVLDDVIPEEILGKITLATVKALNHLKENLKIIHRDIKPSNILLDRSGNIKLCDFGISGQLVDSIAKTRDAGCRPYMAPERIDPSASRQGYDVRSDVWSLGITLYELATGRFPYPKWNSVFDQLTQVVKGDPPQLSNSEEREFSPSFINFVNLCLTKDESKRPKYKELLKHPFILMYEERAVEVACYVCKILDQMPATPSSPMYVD
In short: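 Radiometric 33PanQinase assay: kinase, substrate, ATP and compound in standard buffer, 60 min at 30 °C; 33Pi incorporation read by scintillation counting.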

[8] = target: T3, JNK1; experiment: 33PanQinase enzyme assay, JNK1; type: biochemical; set-up: purchased ProQinase GmbH, Freiburg, Germany (33PanQinase Assay Service); conditions: ratio IC50(JNK1)/IC50(MKK4)
In short: as §2
Target sequence in this assay (P45983 whole entry): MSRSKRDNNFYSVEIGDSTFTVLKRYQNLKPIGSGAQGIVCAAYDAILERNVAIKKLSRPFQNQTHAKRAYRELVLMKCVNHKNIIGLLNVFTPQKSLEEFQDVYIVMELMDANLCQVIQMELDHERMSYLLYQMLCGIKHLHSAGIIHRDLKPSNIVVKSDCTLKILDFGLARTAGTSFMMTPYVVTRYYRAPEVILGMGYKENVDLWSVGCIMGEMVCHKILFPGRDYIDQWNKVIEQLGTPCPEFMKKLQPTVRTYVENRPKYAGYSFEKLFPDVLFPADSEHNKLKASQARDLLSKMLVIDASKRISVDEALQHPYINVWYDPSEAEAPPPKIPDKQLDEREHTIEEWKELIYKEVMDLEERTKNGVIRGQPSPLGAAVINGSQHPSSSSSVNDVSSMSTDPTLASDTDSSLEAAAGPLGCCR

Compound | selectivity based on % Ctrl @100 nM vs. MKK7 [1] | Selectivity IVIKK7, IC50(off-target)/IC50(MKK4) [2] | selectivity based on % Ctrl @100 nM vs. Braf [3] | Selectivity Braf, IC50(off-target)/IC50(MKK4) [4] | selectivity based on % Ctrl @100 nM vs. JNK1 [5] | MKK4 [% Ctrl @ 100 nM [6] | IC50 [7] | Selectivity JNK1, IC50(off-target)/IC50(MKK4) [8]
COc1ccc(-c2cnc3[nH]cc(C(=O)c4cccc(NS(=O)(=O)Cc5ccccc5)c4F)c3c2)c(Cl)c1 [Example 125, N-(3-(5-(2-chloro-4-methoxyphenyl)-1H-pyrrolo[2,3-b]pyridine-3-carbonyl)-2-fluorophenyl)-1-phenylmethanesulfonamide] | ++ (100 ≥ ratio > 10) | +++ (IC50(off-target)/IC50(MKK4) > 100) | ++ (100 ≥ ratio > 10) | +++ (IC50(off-target)/IC50(MKK4) > 100) | ++ (100 ≥ ratio > 10) | ++ (1 ≤ PoC < 3) | 100 to 1000 nM | + (10 ≥ IC50(off-target)/IC50(MKK4) > 3)
Cc1cc(F)ccc1-c1cnc2[nH]cc(C(=O)c3cccc(NS(=O)(=O)Cc4ccccc4)c3F)c2c1 [Example 126, N-(2-fluoro-3-(5-(4-fluoro-2-methylphenyl)-1H-pyrrolo[2,3-b]pyridine-3-carbonyl)phenyl)-1-phenylmethanesulfonamide] | ++ (100 ≥ ratio > 10) | +++ (IC50(off-target)/IC50(MKK4) > 100) | ++ (100 ≥ ratio > 10) | +++ (IC50(off-target)/IC50(MKK4) > 100) | ++ (100 ≥ ratio > 10) | + (3 ≤ PoC < 30) | 100 to 1000 nM | + (10 ≥ IC50(off-target)/IC50(MKK4) > 3)
O=C(c1cccc(NS(=O)(=O)Cc2ccccc2)c1F)c1c[nH]c2ncc(-c3cc4c(cc3Cl)OCO4)cc12 [Example 128, N-(3-(5-(6-chlorobenzo[d][1,3]dioxol-5-yl)-1H-pyrrolo[2,3-b]pyridine-3-carbonyl)-2-fluorophenyl)-1-phenylmethanesulfonamide] | ++ (100 ≥ ratio > 10) | +++ (IC50(off-target)/IC50(MKK4) > 100) | ++ (100 ≥ ratio > 10) | +++ (IC50(off-target)/IC50(MKK4) > 100) | ++ (100 ≥ ratio > 10) | ++ (1 ≤ PoC < 3) | 100 to 1000 nM | + (10 ≥ IC50(off-target)/IC50(MKK4) > 3)
O=C(c1cccc(NS(=O)(=O)Cc2ccccc2)c1F)c1c[nH]c2ncc(-c3ccncc3)cc12 [Example 129, N-(2-fluoro-3-(5-(pyridin-4-yl)-1H-pyrrolo[2,3-b]pyridine-3-carbonyl)phenyl)-1-phenylmethanesulfonamide] | +++ (Ratio > 100) | +++ (IC50(off-target)/IC50(MKK4) > 100) | +++ (Ratio > 100) | ++ (100 ≥ IC50(off-target)/IC50(MKK4) > 10) | +++ (Ratio > 100) | +++ (PoC < 1) | 100 to 1000 nM | + (10 ≥ IC50(off-target)/IC50(MKK4) > 3)
O=C(c1ccc(F)c(NS(=O)(=O)CCC(F)(F)F)c1F)c1c[nH]c2ncc(-c3ccc(C(F)(F)F)nc3)cc12 [Example 148, N-(2,6-difluoro-3-(5-(6-(trifluoromethyl)pyridin-3-yl)-1H-pyrrolo[2,3-b]pyridine-3-carbonyl)phenyl)-3,3,3-trifluoropropane-1-sulfonamide] | +++ (Ratio > 100) | +++ (IC50(off-target)/IC50(MKK4) > 100) | +++ (Ratio > 100) | ++ (100 ≥ IC50(off-target)/IC50(MKK4) > 10) | +++ (Ratio > 100) | +++ (PoC < 1) | < 100 nM | +++ (IC50(off-target)/IC50(MKK4) > 100)
O=C(c1ccc(F)c(NS(=O)(=O)CCC(F)(F)F)c1F)c1c[nH]c2ncc(-c3cccnc3)cc12 [Example 156, N-(2,6-difluoro-3-(5-(pyridin-3-yl)-1H-pyrrolo[2,3-b]pyridine-3-carbonyl)phenyl)-3,3,3-trifluoropropane-1-sulfonamide] | +++ (Ratio > 100) | +++ (IC50(off-target)/IC50(MKK4) > 100) | +++ (Ratio > 100) | ++ (100 ≥ IC50(off-target)/IC50(MKK4) > 10) | +++ (Ratio > 100) | +++ (PoC < 1) | < 100 nM | +++ (IC50(off-target)/IC50(MKK4) > 100)
Cc1cc(F)ncc1-c1cnc2[nH]cc(C(=O)c3ccc(F)c(NS(=O)(=O)CCC(F)(F)F)c3F)c2c1 [Example 157, N-(2,6-difluoro-3-(5-(6-fluoro-4-methylpyridin-3-yl)-1H-pyrrolo[2,3-b]pyridine-3-carbonyl)phenyl)-3,3,3-trifluoropropane-1-sulfonamide] | +++ (Ratio > 100) | +++ (IC50(off-target)/IC50(MKK4) > 100) | +++ (Ratio > 100) | +++ (IC50(off-target)/IC50(MKK4) > 100) | +++ (Ratio > 100) | +++ (PoC < 1) | < 100 nM | +++ (IC50(off-target)/IC50(MKK4) > 100)
COc1ccc(-c2cnc3[nH]cc(C(=O)c4ccc(F)c(NS(=O)(=O)CCC(F)(F)F)c4F)c3c2)cn1 [Example 158, N-(2,6-difluoro-3-(5-(6-methoxypyridin-3-yl)-1H-pyrrolo[2,3-b]pyridine-3-carbonyl)phenyl)-3,3,3-trifluoropropane-1-sulfonamide] | +++ (Ratio > 100) | +++ (IC50(off-target)/IC50(MKK4) > 100) | +++ (Ratio > 100) | ++ (100 ≥ IC50(off-target)/IC50(MKK4) > 10) | +++ (Ratio > 100) | +++ (PoC < 1) | < 100 nM | +++ (IC50(off-target)/IC50(MKK4) > 100)
